Consider eight molecules from US4474775A, “Pyrazol-4-yl phosphates and insecticidal and acaricidal use” (priority 1979, dated 1984).

The first data set has as its system Laodelphax striatellus. The data set can be described thus: Effectiveness against Laodelphax striatellus, adults, dust on paddy-rice plant (Testing Example 1 (b)). It is filed as in vivo. The note with it: small brown planthopper, adults on dusted rice, 24 h. As to the method:
(§1) Testing Example 1: Effectiveness against Laodelphax striatellus
(b) A test compound was processed into a dust preparation in accordance with the formulation of Example 8, and […] of the preparation was dusted on the potted paddy-rice plant (1/5,000 a) by the Berger Duster method. After dusting, leaves (15 cm long) of the paddy rice were cut off and were placed in a test tube containing 1 ml of water in the bottom, and ten adults of Laodelphax striatellus were released therein. After allowing the test tube to stand in the room (28° C.) for 24 hours, the dead insects were counted.
On to `CCCSP(=O)(OCC)Oc1cnn(-c2ccc(Cl)c(Cl)c2)c1` (stereo not drawn) [Compound No. 31, O-ethyl-O-[3,4-dichlorophenyl)pyrazol-4-yl]-S-n-propyl phosphorothiolate], for which the “Mortality (II)” value is given as 90%.
With `CCCSP(=O)(OCC)Oc1cnn(-c2ccc(I)cc2)c1` (stereo not drawn) [compound 20], the “Mortality (II)” value came to 65%.
Turning to `CCCSP(=O)(OCC)Oc1cnn(-c2ccccc2C)c1` (stereo not drawn) [compound 22], the “Mortality (II)” value was found to be 63%.
Still for that read-out and setting: as for `CCCSP(=O)(OCC)Oc1cnn(-c2ccc(CCC)cc2)c1` (stereo not drawn) [compound 24], the figure is 50%; as for `CCCSP(=O)(OCC)Oc1cnn(-c2ccc(Cl)cc2Cl)c1` (stereo not drawn) [compound 29], 30%; as for `CCCSP(=O)(OCC)Oc1cnn(-c2cc(Cl)cc(Cl)c2)c1` (stereo not drawn) [compound 33], 65%.
In the case of `CCCSP(=O)(OCC)Oc1cnn(-c2ccc(Cl)cc2F)c1` (stereo not drawn) [compound 37], the “Mortality (II)” value turned out to be 90%.
On the same count and under the same terms, to `CCCSP(=O)(OCC)Oc1cnn(-c2cc(Cl)c(Cl)cc2Cl)c1` (stereo not drawn) [compound 42] belongs 40%.

In another data set the test system is Spodoptera litura. The data set can be described thus: Effectiveness against Spodoptera litura (Testing Example 2). It is filed as in vivo. The note with it: second-instar larvae, 500 ppm spray on soybean, 28° C., 24 hours. As to the method:
Testing Example 2: Effectiveness against Spodoptera litura
Twenty milliliters of a 500 ppm, water-diluted solution (with Dyne® Takeda Chem. Ind. Ltd., spreading agent, as diluted 3000-fold) of the test compound (the emulsifiable concentrate of Example 6) was sprayed on grown seedlings (10 days after germination) of soybean plant water-cultured in a polyethylene cup by the use of a spray gun (nozzle pressure of 1 kg/cm^2 gauge) in a spraying chamber. 2 hours after spraying, two main leaves of soybean plant were cut off and were placed into two cups (6 cm in diameter and 4 cm in depth), respectively, and ten second-instar larvae of Spodoptera litura were liberated. The cups were left in the room (28° C.) for 24 hours, and the dead larvae were counted.
The molecule `CCCSP(=O)(OCC)Oc1cnn(-c2ccc(Cl)c(Cl)c2)c1` (stereo not drawn) [Compound No. 31, O-ethyl-O-[3,4-dichlorophenyl)pyrazol-4-yl]-S-n-propyl phosphorothiolate] came in with a mortality at 500 ppm of 100%.
In turn, `CCCSP(=O)(OCC)Oc1cnn(-c2ccc(I)cc2)c1` (stereo not drawn) [compound 20] came in with a mortality at 500 ppm of 100%.
`CCCSP(=O)(OCC)Oc1cnn(-c2ccccc2C)c1` (stereo not drawn) [compound 22] yielded a mortality at 500 ppm of 100%.
`CCCSP(=O)(OCC)Oc1cnn(-c2ccc(CCC)cc2)c1` (stereo not drawn) [compound 24] returned a mortality at 500 ppm of 100%.
Same read-out and setting: as for `CCCSP(=O)(OCC)Oc1cnn(-c2ccc(Cl)cc2Cl)c1` (stereo not drawn) [compound 29], the figure is 100%.
Still for that read-out and setting: to `CCCSP(=O)(OCC)Oc1cnn(-c2cc(Cl)cc(Cl)c2)c1` (stereo not drawn) [compound 33] belongs 100%.
Molecule `CCCSP(=O)(OCC)Oc1cnn(-c2ccc(Cl)cc2F)c1` (stereo not drawn) [compound 37] displayed a mortality at 500 ppm of 100%.
Regarding `CCCSP(=O)(OCC)Oc1cnn(-c2cc(Cl)c(Cl)cc2Cl)c1` (stereo not drawn) [compound 42], the mortality at 500 ppm is 100%.

The test system of a further data set is Tetranychus urticae. The data set can be described thus: Effectiveness against Tetranychus urticae (Testing Example 4). It is filed as in vivo. The note with it: decrease rate grade, 500 ppm spray on kidney bean plant, 2nd day after spraying. As to the method: Testing Example 4: Effectiveness against Tetranychus urticae
A test compound was processed into an emulsifiable concentrate in accordance with the formulation of Example 6, and diluted with water (with Dyne®, spreading agent, as diluted 3000-fold) to prepare a 500 ppm aqueous solution. Ten female adults of Tetranychus urticae) were infected on the seedling of a kidney bean plant water-cultured in a polyethylene cup, and the cups were placed in a glass chamber (28° C.) for 24 hours, followed by spraying 20 ml of the aqueous solution on the kidney bean plant. After the sprayed cup was placed again in the glass chamber, the number of the adults and larvae living on the leaves was counted on the 2nd and 7th days after spraying. The test was repeated twice, and the test results are tabulated in Table 5 in terms of the efficacy grading as determined by calculating a decrease rate by the following equation:
Decrease rate (%)=[(number of mites tested-number of larvae living on the day of inspection)/(number of mites tested)]×100
Turning to `CCCSP(=O)(OCC)Oc1cnn(-c2ccc(Cl)c(Cl)c2)c1` (stereo not drawn) [Compound No. 31, O-ethyl-O-[3,4-dichlorophenyl)pyrazol-4-yl]-S-n-propyl phosphorothiolate], the “Efficacy grading, 2nd day” value is listed as 3 (Not less than 90).
In the case of `CCCSP(=O)(OCC)Oc1cnn(-c2ccc(I)cc2)c1` (stereo not drawn) [compound 20], the “Efficacy grading, 2nd day” value is 3 (Not less than 90).
As to `CCCSP(=O)(OCC)Oc1cnn(-c2ccccc2C)c1` (stereo not drawn) [compound 22], the “Efficacy grading, 2nd day” value was 3 (Not less than 90).
On the same count and under the same terms, to `CCCSP(=O)(OCC)Oc1cnn(-c2ccc(CCC)cc2)c1` (stereo not drawn) [compound 24] belongs 3 (Not less than 90).
`CCCSP(=O)(OCC)Oc1cnn(-c2ccc(Cl)cc2Cl)c1` (stereo not drawn) [compound 29]: the “Efficacy grading, 2nd day” value is 3 (Not less than 90).
Same read-out and setting: as for `CCCSP(=O)(OCC)Oc1cnn(-c2cc(Cl)cc(Cl)c2)c1` (stereo not drawn) [compound 33], the figure is 3 (Not less than 90); as for `CCCSP(=O)(OCC)Oc1cnn(-c2ccc(Cl)cc2F)c1` (stereo not drawn) [compound 37], 3 (Not less than 90).
The same measure, in the same setting: to `CCCSP(=O)(OCC)Oc1cnn(-c2cc(Cl)c(Cl)cc2Cl)c1` (stereo not drawn) [compound 42] belongs 3 (Not less than 90).

Staying with this data set, now noted: decrease rate grade, 500 ppm spray on kidney bean plant, 7th day after spraying.
As for `CCCSP(=O)(OCC)Oc1cnn(-c2ccc(Cl)c(Cl)c2)c1` (stereo not drawn) [Compound No. 31, O-ethyl-O-[3,4-dichlorophenyl)pyrazol-4-yl]-S-n-propyl phosphorothiolate], the “Efficacy grading, 7th day” value is given as 3 (Not less than 90).
On the same count and under the same terms, to `CCCSP(=O)(OCC)Oc1cnn(-c2ccc(I)cc2)c1` (stereo not drawn) [compound 20] belongs 3 (Not less than 90); to `CCCSP(=O)(OCC)Oc1cnn(-c2ccccc2C)c1` (stereo not drawn) [compound 22], 3 (Not less than 90).
Same read-out and setting: as for `CCCSP(=O)(OCC)Oc1cnn(-c2ccc(CCC)cc2)c1` (stereo not drawn) [compound 24], the figure is 3 (Not less than 90); as for `CCCSP(=O)(OCC)Oc1cnn(-c2ccc(Cl)cc2Cl)c1` (stereo not drawn) [compound 29], 3 (Not less than 90).
Same read-out and setting: to `CCCSP(=O)(OCC)Oc1cnn(-c2cc(Cl)cc(Cl)c2)c1` (stereo not drawn) [compound 33] belongs 3 (Not less than 90).
Regarding `CCCSP(=O)(OCC)Oc1cnn(-c2ccc(Cl)cc2F)c1` (stereo not drawn) [compound 37], the “Efficacy grading, 7th day” value was 3 (Not less than 90).
As to `CCCSP(=O)(OCC)Oc1cnn(-c2cc(Cl)c(Cl)cc2Cl)c1` (stereo not drawn) [compound 42], the “Efficacy grading, 7th day” value was 3 (Not less than 90).

System in another data set: not listed separately
The data set can be described thus: Oral acute toxicity in mice (Toxicological Test). The note with it: mouse, in vivo, five-week aged ddY-SLC strained male mice. The text has this: Below tabulated are the oral acute toxicity values obtained with five-week aged, ddY-SLC strained male mice: […]
On to `CCCSP(=O)(OCC)Oc1cnn(-c2ccc(Cl)c(Cl)c2)c1` (stereo not drawn) [Compound No. 31, O-ethyl-O-[3,4-dichlorophenyl)pyrazol-4-yl]-S-n-propyl phosphorothiolate], for which the LD50 was above 300 mg/kg.
Same read-out and setting: as for `CCCSP(=O)(OCC)Oc1cnn(-c2ccc(I)cc2)c1` (stereo not drawn) [compound 20], the figure is above 300 mg/kg.
Same read-out and setting: to `CCCSP(=O)(OCC)Oc1cnn(-c2ccccc2C)c1` (stereo not drawn) [compound 22] belongs around 300 mg/kg; to `CCCSP(=O)(OCC)Oc1cnn(-c2ccc(CCC)cc2)c1` (stereo not drawn) [compound 24], above 300 mg/kg; to `CCCSP(=O)(OCC)Oc1cnn(-c2ccc(Cl)cc2Cl)c1` (stereo not drawn) [compound 29], around 300 mg/kg.
On the same count and under the same terms, as for `CCCSP(=O)(OCC)Oc1cnn(-c2cc(Cl)cc(Cl)c2)c1` (stereo not drawn) [compound 33], the figure is above 300 mg/kg; as for `CCCSP(=O)(OCC)Oc1cnn(-c2ccc(Cl)cc2F)c1` (stereo not drawn) [compound 37], above 300 mg/kg; as for `CCCSP(=O)(OCC)Oc1cnn(-c2cc(Cl)c(Cl)cc2Cl)c1` (stereo not drawn) [compound 42], above 300 mg/kg.

The test system of the next data set is Laodelphax striatellus. The data set can be described thus: Effectiveness against Laodelphax striatellus, third-instar larvae, root dip (Testing Example 1 (a)). It is filed as in vivo. The note with it: 40 ppm emulsifiable concentrate dilution, root dip 2 hours, 28° C., 24 hours, read-out: Mortality (I). How it is done:
as §1
(a) A test compound was processed into an emulsifiable concentrate in accordance with the formulation of Example 6, followed by diluting with water to prepare a treating solution of a 40 ppm concentration. 2.5 ml of the treating solution was placed into a test tube (with 1.7 cm of diameter, 4 cm deep), in which three seedlings of a paddy-rice plant (on the 7th day after germination) were allowed to stand so their root portions were dipped into the solution for 2 hours. The seedlings were then transferred into a test tube having 1 ml water placed in the bottom, and ten third-instar larvae of Laodelphax striatellus were released. After allowing the test tube to stand in the room (28° C.) for 24 hours, the dead larvae were counted. The test is repeated twice, and the test results are tabulated, in terms of mortality, in Table 2 (I).
`CCCSP(=O)(OCC)Oc1cnn(-c2ccc(Cl)c(Cl)c2)c1` (stereo not drawn) [Compound No. 31, O-ethyl-O-[3,4-dichlorophenyl)pyrazol-4-yl]-S-n-propyl phosphorothiolate]: the mortality at 40 µg/mL turned out to be 100%.
The same measure, in the same setting: as for `CCCSP(=O)(OCC)Oc1cnn(-c2ccc(I)cc2)c1` (stereo not drawn) [compound 20], the figure is 100%.
The same measure, in the same setting: as for `CCCSP(=O)(OCC)Oc1cnn(-c2ccccc2C)c1` (stereo not drawn) [compound 22], the figure is 85%.
Consider `CCCSP(=O)(OCC)Oc1cnn(-c2ccc(CCC)cc2)c1` (stereo not drawn) [compound 24], for which the mortality at 40 µg/mL was determined as 85%.
Still for that read-out and setting: to `CCCSP(=O)(OCC)Oc1cnn(-c2ccc(Cl)cc2Cl)c1` (stereo not drawn) [compound 29] belongs 95%; to `CCCSP(=O)(OCC)Oc1cnn(-c2cc(Cl)cc(Cl)c2)c1` (stereo not drawn) [compound 33], 100%; to `CCCSP(=O)(OCC)Oc1cnn(-c2ccc(Cl)cc2F)c1` (stereo not drawn) [compound 37], 100%.
As to `CCCSP(=O)(OCC)Oc1cnn(-c2cc(Cl)c(Cl)cc2Cl)c1` (stereo not drawn) [compound 42], the mortality at 40 µg/mL is 100%.

The test system of another data set is Unaspis yanonensis. Description: Effectiveness against Unaspis yanonensis (Testing Example 3). It is filed as in vivo. The note with it: 480 h, second-instar larvae, 500 ppm wettable powder suspension sprayed, 20th day after spraying. As to the method:
Testing Example 3: Effectiveness of Unaspis yanonensis
A test compound was processed into a wettable powder in accordance with the formulation of Example 7, and was diluted with water (with Dyne®, spreading agent, as diluted 3000-fold) to prepare a 500 ppm aqueous suspension. 20 ml of the aqueous suspension was sprayed on second-instar larvae (10 to 50 of the number parasitized) of Unaspis yanonensis on a seedling of Citrus trifoliate (2 months after germination) being planted in a pot (9 cm in diameter). After the sprayed pot was transferred to a greenhouse (25° to 30°C.), adult insects were counted on the 20th day after spraying. Mortality (%) is calculated by the following equation: [formula]
The molecule `CCCSP(=O)(OCC)Oc1cnn(-c2ccc(Cl)c(Cl)c2)c1` (stereo not drawn) [Compound No. 31, O-ethyl-O-[3,4-dichlorophenyl)pyrazol-4-yl]-S-n-propyl phosphorothiolate] yielded a mortality at 500 µg/mL of 75%.
Same read-out and setting: as for `CCCSP(=O)(OCC)Oc1cnn(-c2ccc(Cl)cc2Cl)c1` (stereo not drawn) [compound 29], the figure is 97%; as for `CCCSP(=O)(OCC)Oc1cnn(-c2cc(Cl)cc(Cl)c2)c1` (stereo not drawn) [compound 33], 70%.

As a reminder, the mortality is the percentage killed. Broadly, the LD50 is the dose expected to kill half of the subjects tested. Low values mean a more toxic substance, high ones a less toxic substance.
